Source: patent publication US20260109713A1, “SIRTUIN MODULATING COMPOUNDS, INCLUDING SIRTUIN ACTIVATING COMPOUNDS, AND APPLICATIONS THEREOF” (CODAGEN BIOSCIENCES, INC., priority 2022, published 2026)

What was measured:
Type in all cases: biochemical
[1] = target: T1, hSIRT3 102-399 (Homo sapiens, UniProt Q9NTG7); test: HPLC assay of hSIRT3 102-399 deacetylation of MnSOD peptide, Conditions II (non-steady state): 50 μM NAD+, 600 μM peptide; conditions: for Conditions II, Effect: Conditions II (non-steady state); for Activity test, Conditions II, HPLC: Conditions II: 50 μM NAD+, 600 μM peptide, 10 μM compound, triplicate
T1 construct: His-tag; purchased Enzo Life Sciences (Farmingdale, NY)
T1 sequence (Q9NTG7 102-399): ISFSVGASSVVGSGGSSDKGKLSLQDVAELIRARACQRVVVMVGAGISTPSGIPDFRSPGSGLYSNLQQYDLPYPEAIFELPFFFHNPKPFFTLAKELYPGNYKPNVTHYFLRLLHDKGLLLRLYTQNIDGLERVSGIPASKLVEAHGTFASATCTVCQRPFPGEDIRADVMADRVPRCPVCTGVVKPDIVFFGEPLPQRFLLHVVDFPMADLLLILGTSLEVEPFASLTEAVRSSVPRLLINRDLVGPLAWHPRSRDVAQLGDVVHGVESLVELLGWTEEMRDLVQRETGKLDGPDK
Description: FIG. 5. Sirt3 activation by top ranked hit compounds.
The deacetylation activity of SIRT3 was detected in the presence of 10 μM compound of AA8AC40 under non-steady state condition (FIG. 5) using HPLC-based assay. […] The test compound is expected to experience three phases (presteady state, steady-state, and post steady state) during the enzymatic reaction. The pre and post-steady state can be considered as non-steady state, in which the enzyme concentration vs. NAD^+ substrate concentration ratio is high. Depending on the initial ratio of enzyme to limiting substrate in the system (and the ratio of enzyme to test compound concentration), the net effect of test compound over the course of the reaction can be either inhibitory or activating, with activation occurring if this ratio is above a threshold value.
Enzymatic reactions included either 1000 μM NAD^+ and 50 μM MnSOD peptide (Conditions I) or 50 μM NAD^+ and 600 μM peptide substrate (Conditions II) in presence of hit compounds (50 μM (Conditions I) or 10 μM (Conditions II)), in a HDAC buffer (50 mM TRIS-HCl, pH 8.0, containing 137 mM sodium chloride, 2.7 mM potassium chloride, and 1 mM magnesium chloride) dimethyl sulfoxide solution 95/5. […] The reaction was terminated by adding a stopping solution (final concentration of 2% TFA, 5 mM Nicotinamide). The peptide product and substrate were resolved using HPLC (reversed-phase C18 HPLC Column). Solvent A was composed of 90% HPLC grade water and 10% acetonitrile with 0.05% (v/v) TFA. Solvent B was composed of acetonitrile with 0.02% (v/v) TFA. […] Then returned to the starting conditions (0% B) within 5 min. Solvent A percentage (100%) was maintained at 100% for 5 additional minutes (36 min total run time).

[2] = target: T1, hSIRT3 102-399; test: HPLC assay of hSIRT3 102-399 deacetylation of MnSOD peptide, Conditions I (steady state): 1000 μM NAD+, 50 μM MnSOD peptide; conditions: for Conditions I, Effect: Conditions I (steady state), HPLC/FdL; for Activity test, Conditions I, HPLC: Conditions I: 1000 μM NAD+, 50 μM MnSOD peptide, 50 μM compound, 30 min, triplicate, same values as % control in Table 3
Description: […] The peptide product and substrate were resolved using HPLC (reversed-phase C18 HPLC Column). Solvent A was composed of 90% HPLC grade water and 10% acetonitrile with 0.05% (v/v) TFA. Solvent B was composed of acetonitrile with 0.02% (v/v) TFA. […] Then returned to the starting conditions (0% B) within 5 min. Solvent A percentage (100%) was maintained at 100% for 5 additional minutes (36 min total run time).

[3] = target: T2, hSIRT3 (Homo sapiens, UniProt Q9NTG7); test: Fluorescence-based SIRT3 deacetylation assay using FdL2 peptide, steady state (Conditions I); conditions: triplicate
T2 construct: His-tag; purchased Enzo Life Sciences (Farmingdale, NY)
T2 sequence (Q9NTG7 102-399): T1 sequence (Q9NTG7 102-399)
Description: FIG. 4. Effect of top ranked hit compounds on Sirt3 deacetylation activity.
The 6 top ranked compounds from DEL screening were tested modulation effect of SIRT3 using fluorescence-based assay (FIG. 4).
The enzymatic reactions were carried out similar to as described above. The reaction was terminated by adding the 1× developer 2 mM NAM solution and measured the fluorescence on TECAN microplate reader. The raw data were fitted to the defined model equations using GraphPad Prism (GraphPad Software, Inc, CA).

Conditions II, Effect [1] | Activity test, Conditions II, HPLC [1] | Conditions I, Effect [2] | Activity test, Conditions I, HPLC [2] | Activity test, Conditions I, FdL [3] | % Control in vitro modulation, Non-Steady state ([1]; non-steady state, 10 μM modulator) | % Control in vitro modulation, Steady-state ([2]; steady state, 10 μM modulator) | SMILES
Activator | 108.1 | Slight Activator | 106.7 | 101.2 |  |  | Nc1nc2n(n1)C(c1ccc(OCc3ccccc3)cc1)CC(c1ccc(Cl)cc1)N2 (stereo not drawn) [FIG. 14]
Slight Activator | 103.1 | Inhibitor | 98.2 | 88.1 | 103.1 % Control | 98.2 % Control | O=C1NCCN(C(=O)c2cccc(-c3cnn4ccccc34)c2)C1CCO (stereo not drawn) [FIG. 227]
